Assays:
SIRT6 [1] = molecular target: T1, SIRT6 (Homo sapiens, UniProt Q8N6T7); experiment: SIRT6 enzymatic activity assay with fluorophore (AMC)-labeled Lysin-myristoylated histone H3 peptide (de-myristoylation, trypsin release); assay type: biochemical; design: six-histidine tag; made in house; host or cells: Escherichia coli BL21; settings: for % activity 20 uM: compound 20 uM; for % activity 20 uM / % activity Max. conc. 100 uM: percentage of signal increase relative to control wells, Tables 1-2; for % activity Max. conc. 100 uM: compound 100 uM; for % Activity: amount tested 20 uM, Example 5, Table 9
Description: Human recombinant SIRT6 (sequence identifier: CAG33481.1; GI:4814651) was expressed in large scale in Escherichia coli strain BL21 as a six-histidine-tagged protein, after transformation of the expression plasmid pET28-SIRT6. The SIRT6 enzyme was purified from the bacteria culture broth in a two-step strategy. The first purification step was carried out by cation exchange chromatography on a HiTrap CM-Sepharose column (GE Healthcare) using an FPLC system. The second purification step was performed by immobilized metal ion affinity chromatography (IMAC) using a cobalt affinity column (Clontech).
The enzymatic activity assay is carried out in 96 or 384-well microplates using the purified recombinant SIRT6 and a fluorophore-labeled peptide substrate: 7-amino-4-methylcoumarin (AMC) that is quenched through conjugation to the C-terminal end of a Lysin-myristoylated histone H3 peptide. The activity assay procedure requires two steps, both performed in the same microplate. In the first step, the substrate is incubated with the purified SIRT6 protein along with the co-substrate nicotinamide adenine dinucleotide (NAD+). Upon de-myristoylation, the liberated ε-amino group of the lysine becomes a trypsin substrate. Treatment with trypsin in the second step releases the fluorophore resulting in an increase in fluorescence. Fluorescence intensity is measured using a fluorescent plate reader (excitation and emission at 370 nm and 450 nm, respectively). The fluorescence signal is directly proportional to SIRT6 enzymatic activity.
In the primary screening, compounds from a library (ChemDiv Inc.) were tested at a single concentration of 20 micromolar for their potential to modulate SIRT6 enzymatic activity. The assay was carried out in 384-well black well plates and all liquid handling was done using a robotic liquid handler. Purified recombinant SIRT6 (1 micromolar) was pre-incubated with each compound (or DMSO in control wells) for 15 minutes at room temperature. The first stage of the assay was initiated by adding a ‘substrate solution’ containing the myristoylated histone H3 peptide and NAD+(for final concentrations of 25 micromolar and 20 micromolar, respectively). After one hour incubation at 37° C., a Trypsin solution (6 mg/mL) was added for 30 minutes at room temperature. Fluorescence intensity was measured using a fluorescent plate reader (Tecan) with excitation at 370 nm and emission at 450 nm. The effect of each tested compound was evaluated by the change in the fluorescence intensity compared to control wells. […] To validate the primary screening results, each of the primary “hits” was re-tested, first at concentration of 20 micromolar in duplicates and later at a serial dilution ranging from 100 to 0.2 micromolar in triplicates.
Results of Assay—The results of the assay are given below in Tables 1-3.
Additional molecules were tested according to the methods and materials of Example 1. The amount tested was 20 uM for each molecule.

SIRT6 [2] = molecular target: T1, SIRT6; experiment: Secondary validation assays: HPLC deacylation, fluorometric deacetylation, in vitro histone deacetylation; assay type: biochemical; settings: values only in FIGS. 1-3
Description: The activating effect of three compounds (ChemDiv ID E677-1326, E677-0945 and D715-0284) for SIRT6 was validated by conducting the following secondary assays. As previously described, D715-0284 is a stereoisomer of molecule 768382-41-8.
1. HPLC deacylation assay. SIRT6 was incubated with compounds and myristoyl-lysine peptide (corresponding to TNF-alpha sequence) at 37° C. The deacylation reactions were analyzed by reversed phase high-performance liquid chromatography on Kinetex C18 column by monitoring the formation of the deacylated product at 214 nm. […] Equally diluted DMSO served as control.
2. Fluorometric deacetylation assay. SIRT6 was incubated with compounds and fluorophore-labelled acetyl-lysine peptide (corresponding to histone H3 sequence) at 37° C. […] Results are expressed as a percentage of DMSO—treated control.
3. In vitro histone deacetylation assay. Chromatin was purified from HEK293T cells by two steps of lysis (with Nonidet P-40 lysis buffer). SIRT6 was incubated with chromatin proteins and the reaction mixture is then used for Western blot analysis. […] SIRT6 (0.5 μM) was incubated with chromatin fractions isolated from HEK293T cells in the presence of 10 micromolar NAD+ and compound D715-0284 or DMSO (control) at 37° C.

T1 sequence (Q8N6T7 whole entry): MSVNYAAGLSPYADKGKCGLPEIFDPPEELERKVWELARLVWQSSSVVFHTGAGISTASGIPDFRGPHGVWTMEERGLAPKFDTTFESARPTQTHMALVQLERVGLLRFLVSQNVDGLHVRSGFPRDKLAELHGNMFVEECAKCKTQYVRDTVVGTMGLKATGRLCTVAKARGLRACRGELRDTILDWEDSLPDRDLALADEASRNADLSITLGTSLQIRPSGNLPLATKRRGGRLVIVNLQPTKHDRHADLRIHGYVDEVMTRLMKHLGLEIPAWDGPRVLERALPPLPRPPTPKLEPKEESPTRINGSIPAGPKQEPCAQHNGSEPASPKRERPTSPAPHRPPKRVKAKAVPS

Structure (SMILES)	% activity Max. conc. 100 uM (SIRT6 [1]) [%]	% Activity (SIRT6 [1]) [%]	other results
Cc1cccc2sc(N(CCCN(C)C)C(=O)CCOc3ccccc3)nc12 [E677-0945]	255		% activity 20 uM (SIRT6 [1]): 263%; activating effect for SIRT6 in secondary assays (in words) (SIRT6 [2]): validated
CN(C)CCCN(C(=O)CCOc1ccccc1)c1nc2c(F)cccc2s1 [E677-1326]	252		% activity 20 uM (SIRT6 [1]): 287%; activating effect for SIRT6 in secondary assays (in words) (SIRT6 [2]): validated
COc1cccc2sc(N(CCCN(C)C)C(=O)CCSc3ccccc3)nc12 [E677-1137]		111	
C=C(CN1C(=C)C(c2nc(-c3ccccc3)no2)=C(C)C=C1C)NCCc1ccc(CC)c(CC)c1 [G744-0071]	73		
COc1ccc(-c2csc3c(NN)ncnc23)cc1 [C201-1744]	22		
COc1ccc(CN2CCN(C(=O)c3ccc(N4CCc5ccccc54)s3)CC2)c(OC)c1OC [G122-1838]		45	
O=C(NCc1cccc(Cl)c1)c1noc2c1CSc1ccccc1-2 [E146-0990]	137		
COc1cccc2sc(N(CCCN(C)C)C(=O)CCOc3ccccc3)nc12 [E677-1072]		117	
CCCc1cc2c(=O)c(-c3ccc4c(c3)OCO4)coc2cc1OC(C)=O [2188-3841]		21	
C=C(Cc1ccc2c(c1)C(C)=CC(C)(C)N2)Cc1cccc2ccccc12 [4477-0762]	56		

More lines, main results first:

% activity Max. conc. 100 uM (SIRT6 [1]) [%]	% Activity (SIRT6 [1]) [%]	Structure (SMILES)	other results
	21	Cc1c(Cc2ccccc2)c(=O)oc2cc(OCc3c(Cl)cccc3Cl)ccc12 [Y040-7747]	
	67	CN1CCN(C(=O)C2CCN(c3nc4ccc(-c5ccccc5)nc4s3)CC2)CC1 [T387-0661]	
75		O=C(c1ccc(-c2ccc(N3CCCCC3)nc2)cc1)N1CCCC1 [M715-0156]	
	41	Cc1c(Cc2ccccc2)c(=O)oc2c(C)c(OC(=O)c3ccccc3)ccc12 [Y040-7711]	
113		C=C1Cc2cc(C)cc(CC(=O)[C@@H](NS(=C)(=C)c3ccc(C)cc3)[C@H](C)CC)c2C2=C1CCC2 [Y040-3625]	
	485	COc1ccc(C(=O)Oc2ccc3c4c(c(=O)oc3c2)CCCC4)cc1 [Y040-8182]	
	47	CC1CCN(C(=O)C2CCN(c3nc4ccc(-c5ccncc5)nc4s3)CC2)CC1 [T387-1113]	
42		CCCNc1nc2ccccc2nc1S(=O)(=O)Cc1ccc(Cl)cc1 [L103-0652]	% activity 20 uM (SIRT6 [1]): 34%

Reference: US11278525B1, “Further molecules, compositions and methods for modulation of SIRT6” (SirTLab Corporation, priority 2017, dated 2022)
